According to ChEMBL document CHEMBL5678807, “A selective jumonji H3K27 demethylase inhibitor modulates the proinflammatory macrophage response” (Nature, 2012):

Experiments:
Macrophage [1] = assay: Antiinflammatory activity in human primary macrophages assessed as effect on LPS-induced BMP1 gene expression at 30 uM measured after 2 hrs by RT-PCR array (reference value: 3930 a.u.); assay type: functional
Macrophage [2] = assay: Antiinflammatory activity in human primary macrophages assessed as effect on LPS-induced BMP2 gene expression at 30 uM measured after 2 hrs by RT-PCR array (reference value: 331 a.u.); assay type: functional
Macrophage [3] = assay: Antiinflammatory activity in human primary macrophages assessed as effect on LPS-induced BMP8B gene expression at 30 uM measured after 2 hrs by RT-PCR array (reference value: 1117 a.u.); assay type: functional
Macrophage [4] = assay: Antiinflammatory activity in human primary macrophages assessed as effect on LPS-induced FIGF gene expression at 30 uM measured after 2 hrs by RT-PCR array (reference value: 60 a.u.); assay type: functional
Macrophage [5] = assay: Antiinflammatory activity in human primary macrophages assessed as effect on LPS-induced GDF3 gene expression at 30 uM measured after 2 hrs by RT-PCR array (reference value: 134 a.u.); assay type: functional
Macrophage [6] = assay: Antiinflammatory activity in human primary macrophages assessed as effect on LPS-induced IFNB1 gene expression at 30 uM measured after 2 hrs by RT-PCR array (reference value: 1415030 a.u.); assay type: functional
Macrophage [7] = assay: Antiinflammatory activity in human primary macrophages assessed as effect on LPS-induced IL12A gene expression at 30 uM measured after 2 hrs by RT-PCR array (reference value: 7097 a.u.); assay type: functional
Macrophage [8] = assay: Antiinflammatory activity in human primary macrophages assessed as effect on LPS-induced IL12B gene expression at 30 uM measured after 2 hrs by RT-PCR array (reference value: 17908 a.u.); assay type: functional
Macrophage [9] = assay: Antiinflammatory activity in human primary macrophages assessed as effect on LPS-induced IL16 gene expression at 30 uM measured after 2 hrs by RT-PCR array (reference value: 8635 a.u.); assay type: functional
Macrophage [10] = assay: Antiinflammatory activity in human primary macrophages assessed as effect on LPS-induced IL1B gene expression at 30 uM measured after 2 hrs by RT-PCR array (reference value: 15266918 a.u.); assay type: functional
Macrophage [11] = assay: Antiinflammatory activity in human primary macrophages assessed as effect on LPS-induced IL1F7 gene expression at 30 uM measured after 2 hrs by RT-PCR array (reference value: 192 a.u.); assay type: functional
Macrophage [12] = assay: Antiinflammatory activity in human primary macrophages assessed as effect on LPS-induced IL1F8 gene expression at 30 uM measured after 2 hrs by RT-PCR array (reference value: 1429 a.u.); assay type: functional
Macrophage [13] = assay: Antiinflammatory activity in human primary macrophages assessed as effect on LPS-induced IL1F9 gene expression at 30 uM measured after 2 hrs by RT-PCR array (reference value: 5170 a.u.); assay type: functional
Macrophage [14] = assay: Antiinflammatory activity in human primary macrophages assessed as effect on LPS-induced NODAL gene expression at 30 uM measured after 2 hrs by RT-PCR array (reference value: 125 a.u.); assay type: functional
Macrophage [15] = assay: Antiinflammatory activity in human primary macrophages assessed as effect on LPS-induced TNFSF12 gene expression at 30 uM measured after 2 hrs by RT-PCR array (reference value: 12514 a.u.); assay type: functional
Macrophage [16] = assay: Antiinflammatory activity in human primary macrophages assessed as effect on LPS-induced TNFSF14 gene expression at 30 uM measured after 2 hrs by RT-PCR array (reference value: 5963 a.u.); assay type: functional
Macrophage [17] = assay: Antiinflammatory activity in human primary macrophages assessed as effect on LPS-induced TNFSF4 gene expression at 30 uM measured after 2 hrs by RT-PCR array (reference value: 880 a.u.); assay type: functional
Macrophage [18] = assay: Antiinflammatory activity in human primary macrophages assessed as effect on LPS-induced TNFSF8 gene expression at 30 uM measured after 2 hrs by RT-PCR array (reference value: 248127 a.u.); assay type: functional
Macrophage [19] = assay: Antiinflammatory activity in human primary macrophages assessed as effect on LPS-induced TXLNA gene expression at 30 uM measured after 2 hrs by RT-PCR array (reference value: 8115 a.u.); assay type: functional
[20] = target: Prostaglandin G/H synthase 2 (Homo sapiens, UniProt P35354); assay: Inhibition of human COX-2 by FLINT assay
Histone deacetylase 2 = Histone deacetylase 2 (Homo sapiens, UniProt Q92769); assay: Inhibition of human HDAC2 by FLINT assay
Histone deacetylase 3 = Histone deacetylase 3 (Homo sapiens, UniProt O15379); assay: Inhibition of human HDAC3 by FLINT assay
[21] = target: 5-hydroxytryptamine receptor 2A (Homo sapiens, UniProt P28223); assay: Agonist activity at human 5-HT2A by intracellular Ca luminescence assay; assay type: functional, cell-based
[22] = target: 5-hydroxytryptamine receptor 1B (Homo sapiens, UniProt P28222); assay: Agonist activity at human 5-HT1B by SPA; assay type: functional
[23] = target: Beta-2 adrenergic receptor (Homo sapiens, UniProt P07550); assay: Antagonist activity at human beta2 adrenoceptor by TR-FRET assay; assay type: functional
Histamine H1 receptor = Histamine H1 receptor (Homo sapiens, UniProt P35367); assay: Antagonist activity at human HRH1 by intracellular Ca luminescence assay; assay type: functional, cell-based
[24] = target: T1, Muscarinic acetylcholine receptor M2 (Homo sapiens, UniProt P08172); assay: Agonist activity at human CHRM2 by intracellular Ca fluorescence assay; assay type: functional, cell-based
T1 sequence (P08172 whole entry): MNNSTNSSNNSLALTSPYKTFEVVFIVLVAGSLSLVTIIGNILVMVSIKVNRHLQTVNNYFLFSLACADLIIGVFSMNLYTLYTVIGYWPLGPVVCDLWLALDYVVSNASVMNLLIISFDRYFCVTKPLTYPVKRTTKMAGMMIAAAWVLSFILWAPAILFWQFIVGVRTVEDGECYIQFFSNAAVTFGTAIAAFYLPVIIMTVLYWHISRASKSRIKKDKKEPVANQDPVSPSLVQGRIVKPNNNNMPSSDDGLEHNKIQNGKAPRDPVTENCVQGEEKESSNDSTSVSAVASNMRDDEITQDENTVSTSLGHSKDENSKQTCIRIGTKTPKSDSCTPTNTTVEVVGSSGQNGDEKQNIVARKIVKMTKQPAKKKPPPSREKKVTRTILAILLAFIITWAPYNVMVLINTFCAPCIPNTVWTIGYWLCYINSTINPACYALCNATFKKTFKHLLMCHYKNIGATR

[25] = target: T1, Muscarinic acetylcholine receptor M2; assay: Antagonist activity at human CHRM2 by intracellular Ca fluorescence assay; assay type: functional, cell-based
[26] = target: Acetylcholine receptor subunit alpha (Homo sapiens, UniProt P02708); assay: Antagonist activity at human alpha 1 nAChR by intracellular Ca fluorescence assay; assay type: cell-based
[27] = target: Voltage-dependent L-type calcium channel subunit alpha-1C (Homo sapiens, UniProt Q13936); assay: Antagonist activity at human CaV1.2 (L-type) by intracellular Ca fluorescence assay; assay type: cell-based
[28] = target: Aryl hydrocarbon receptor (Homo sapiens, UniProt P35869); assay: Agonist activity at human AhR by TR-FRET assay
OATP1B1 (SLCO1B1) = OATP1B1 (SLCO1B1) (Homo sapiens, UniProt Q9Y6L6); assay: Blockade of human OATP1B1 by imaging analysis
Sequence of OATP1B1 (SLCO1B1) (Q9Y6L6 whole entry): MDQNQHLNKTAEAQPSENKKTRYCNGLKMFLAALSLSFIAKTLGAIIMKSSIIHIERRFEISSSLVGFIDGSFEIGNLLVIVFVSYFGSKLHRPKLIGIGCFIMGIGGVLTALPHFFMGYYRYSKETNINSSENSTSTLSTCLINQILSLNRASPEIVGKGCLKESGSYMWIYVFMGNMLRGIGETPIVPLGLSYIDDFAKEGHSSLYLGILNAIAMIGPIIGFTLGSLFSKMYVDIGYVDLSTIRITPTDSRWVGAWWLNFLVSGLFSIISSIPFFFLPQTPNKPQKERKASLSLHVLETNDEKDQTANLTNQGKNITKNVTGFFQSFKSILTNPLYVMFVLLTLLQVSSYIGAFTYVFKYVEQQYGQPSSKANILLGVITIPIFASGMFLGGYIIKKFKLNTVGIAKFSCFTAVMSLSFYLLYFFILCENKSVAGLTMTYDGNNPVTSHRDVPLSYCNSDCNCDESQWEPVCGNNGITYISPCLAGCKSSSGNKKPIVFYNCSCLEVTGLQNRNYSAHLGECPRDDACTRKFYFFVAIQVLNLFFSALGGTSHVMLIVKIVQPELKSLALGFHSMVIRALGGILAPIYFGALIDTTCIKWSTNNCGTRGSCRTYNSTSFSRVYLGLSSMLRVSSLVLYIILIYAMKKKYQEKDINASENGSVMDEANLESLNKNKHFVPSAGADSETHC

Sequence of Histone deacetylase 3 (O15379 whole entry): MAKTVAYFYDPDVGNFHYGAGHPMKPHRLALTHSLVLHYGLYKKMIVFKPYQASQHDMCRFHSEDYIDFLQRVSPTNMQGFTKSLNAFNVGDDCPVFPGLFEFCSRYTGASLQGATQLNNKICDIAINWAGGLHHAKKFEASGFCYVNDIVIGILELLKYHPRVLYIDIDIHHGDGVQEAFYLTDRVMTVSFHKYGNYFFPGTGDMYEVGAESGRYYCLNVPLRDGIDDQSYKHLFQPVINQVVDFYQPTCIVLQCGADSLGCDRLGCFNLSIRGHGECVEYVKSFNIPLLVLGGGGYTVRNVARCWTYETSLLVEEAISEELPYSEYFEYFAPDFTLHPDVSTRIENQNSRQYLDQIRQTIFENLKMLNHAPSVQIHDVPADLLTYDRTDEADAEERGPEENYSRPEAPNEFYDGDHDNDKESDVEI
Sequence of Acetylcholine receptor subunit alpha (P02708 whole entry): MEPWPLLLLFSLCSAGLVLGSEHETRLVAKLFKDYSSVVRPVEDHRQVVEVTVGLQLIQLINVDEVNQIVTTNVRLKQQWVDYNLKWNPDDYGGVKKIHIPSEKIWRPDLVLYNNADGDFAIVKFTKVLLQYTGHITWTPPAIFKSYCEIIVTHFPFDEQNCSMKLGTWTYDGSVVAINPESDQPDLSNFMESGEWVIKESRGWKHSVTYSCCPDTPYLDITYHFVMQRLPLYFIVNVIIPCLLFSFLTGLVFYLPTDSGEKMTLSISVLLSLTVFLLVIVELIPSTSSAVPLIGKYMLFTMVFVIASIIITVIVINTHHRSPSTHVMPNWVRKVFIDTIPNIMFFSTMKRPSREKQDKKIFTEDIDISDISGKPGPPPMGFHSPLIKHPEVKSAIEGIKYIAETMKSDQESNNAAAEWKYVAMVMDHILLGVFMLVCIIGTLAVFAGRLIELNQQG
Sequence of Beta-2 adrenergic receptor (P07550 whole entry): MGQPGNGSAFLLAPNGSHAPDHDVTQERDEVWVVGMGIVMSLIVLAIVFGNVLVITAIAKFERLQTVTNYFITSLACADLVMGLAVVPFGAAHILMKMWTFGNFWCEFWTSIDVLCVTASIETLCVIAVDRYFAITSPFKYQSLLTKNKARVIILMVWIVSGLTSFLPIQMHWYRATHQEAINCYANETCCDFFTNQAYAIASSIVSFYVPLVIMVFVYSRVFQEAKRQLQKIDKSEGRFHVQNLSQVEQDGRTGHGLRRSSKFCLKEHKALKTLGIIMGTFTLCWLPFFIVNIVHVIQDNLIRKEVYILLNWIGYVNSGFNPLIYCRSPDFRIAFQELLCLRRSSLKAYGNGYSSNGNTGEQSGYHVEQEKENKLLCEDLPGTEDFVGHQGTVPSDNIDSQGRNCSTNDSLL
Sequence of 5-hydroxytryptamine receptor 2A (P28223 whole entry): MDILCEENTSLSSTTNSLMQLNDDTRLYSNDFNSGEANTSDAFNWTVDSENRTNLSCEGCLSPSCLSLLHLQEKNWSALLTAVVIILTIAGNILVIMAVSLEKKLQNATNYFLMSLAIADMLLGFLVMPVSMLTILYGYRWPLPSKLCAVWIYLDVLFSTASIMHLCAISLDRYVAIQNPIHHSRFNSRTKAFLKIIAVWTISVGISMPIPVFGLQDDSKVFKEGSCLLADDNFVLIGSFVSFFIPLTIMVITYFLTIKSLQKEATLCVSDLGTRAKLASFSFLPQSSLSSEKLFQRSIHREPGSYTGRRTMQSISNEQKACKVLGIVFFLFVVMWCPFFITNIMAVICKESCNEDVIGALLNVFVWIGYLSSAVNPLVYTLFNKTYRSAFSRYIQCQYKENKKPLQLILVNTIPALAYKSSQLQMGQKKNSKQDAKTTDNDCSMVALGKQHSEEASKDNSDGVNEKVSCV
Sequence of 5-hydroxytryptamine receptor 1B (P28222 whole entry): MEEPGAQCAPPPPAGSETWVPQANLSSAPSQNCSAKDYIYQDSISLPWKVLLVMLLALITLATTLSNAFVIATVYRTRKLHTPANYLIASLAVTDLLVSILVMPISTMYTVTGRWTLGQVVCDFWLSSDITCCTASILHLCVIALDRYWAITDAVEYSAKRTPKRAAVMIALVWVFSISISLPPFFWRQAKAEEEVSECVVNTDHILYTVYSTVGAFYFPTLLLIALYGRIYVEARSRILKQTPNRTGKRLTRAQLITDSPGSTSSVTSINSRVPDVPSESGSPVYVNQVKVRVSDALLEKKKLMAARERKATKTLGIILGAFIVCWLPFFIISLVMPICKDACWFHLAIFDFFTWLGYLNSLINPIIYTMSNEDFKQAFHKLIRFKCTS
Sequence of Histone deacetylase 2 (Q92769 whole entry): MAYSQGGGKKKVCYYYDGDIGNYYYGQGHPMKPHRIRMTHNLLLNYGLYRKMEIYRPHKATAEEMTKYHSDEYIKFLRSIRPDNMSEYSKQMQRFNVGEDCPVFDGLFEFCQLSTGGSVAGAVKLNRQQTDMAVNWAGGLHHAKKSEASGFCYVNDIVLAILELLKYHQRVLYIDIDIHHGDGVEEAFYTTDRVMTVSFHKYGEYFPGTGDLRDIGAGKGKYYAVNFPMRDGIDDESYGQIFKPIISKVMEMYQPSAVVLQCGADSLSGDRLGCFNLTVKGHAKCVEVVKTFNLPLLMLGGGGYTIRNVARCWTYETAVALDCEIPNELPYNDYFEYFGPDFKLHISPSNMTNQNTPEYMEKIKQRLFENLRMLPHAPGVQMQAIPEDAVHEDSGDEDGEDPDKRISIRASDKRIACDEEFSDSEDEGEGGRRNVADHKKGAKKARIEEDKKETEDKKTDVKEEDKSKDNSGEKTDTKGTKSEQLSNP
Sequence of Histamine H1 receptor (P35367 whole entry): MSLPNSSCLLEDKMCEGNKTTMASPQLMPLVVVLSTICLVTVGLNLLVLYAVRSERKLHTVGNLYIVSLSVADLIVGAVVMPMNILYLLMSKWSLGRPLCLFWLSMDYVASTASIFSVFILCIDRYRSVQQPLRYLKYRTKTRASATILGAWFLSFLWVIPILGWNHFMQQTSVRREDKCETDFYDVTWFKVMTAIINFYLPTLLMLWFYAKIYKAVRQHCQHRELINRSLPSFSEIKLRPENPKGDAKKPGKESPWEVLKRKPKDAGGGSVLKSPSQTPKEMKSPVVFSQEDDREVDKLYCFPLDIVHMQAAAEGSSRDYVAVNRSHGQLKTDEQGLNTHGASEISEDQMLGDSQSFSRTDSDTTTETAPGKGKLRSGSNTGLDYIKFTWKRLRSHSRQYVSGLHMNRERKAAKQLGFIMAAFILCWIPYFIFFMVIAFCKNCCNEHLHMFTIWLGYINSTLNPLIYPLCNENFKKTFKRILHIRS
Sequence of Aryl hydrocarbon receptor (P35869 whole entry): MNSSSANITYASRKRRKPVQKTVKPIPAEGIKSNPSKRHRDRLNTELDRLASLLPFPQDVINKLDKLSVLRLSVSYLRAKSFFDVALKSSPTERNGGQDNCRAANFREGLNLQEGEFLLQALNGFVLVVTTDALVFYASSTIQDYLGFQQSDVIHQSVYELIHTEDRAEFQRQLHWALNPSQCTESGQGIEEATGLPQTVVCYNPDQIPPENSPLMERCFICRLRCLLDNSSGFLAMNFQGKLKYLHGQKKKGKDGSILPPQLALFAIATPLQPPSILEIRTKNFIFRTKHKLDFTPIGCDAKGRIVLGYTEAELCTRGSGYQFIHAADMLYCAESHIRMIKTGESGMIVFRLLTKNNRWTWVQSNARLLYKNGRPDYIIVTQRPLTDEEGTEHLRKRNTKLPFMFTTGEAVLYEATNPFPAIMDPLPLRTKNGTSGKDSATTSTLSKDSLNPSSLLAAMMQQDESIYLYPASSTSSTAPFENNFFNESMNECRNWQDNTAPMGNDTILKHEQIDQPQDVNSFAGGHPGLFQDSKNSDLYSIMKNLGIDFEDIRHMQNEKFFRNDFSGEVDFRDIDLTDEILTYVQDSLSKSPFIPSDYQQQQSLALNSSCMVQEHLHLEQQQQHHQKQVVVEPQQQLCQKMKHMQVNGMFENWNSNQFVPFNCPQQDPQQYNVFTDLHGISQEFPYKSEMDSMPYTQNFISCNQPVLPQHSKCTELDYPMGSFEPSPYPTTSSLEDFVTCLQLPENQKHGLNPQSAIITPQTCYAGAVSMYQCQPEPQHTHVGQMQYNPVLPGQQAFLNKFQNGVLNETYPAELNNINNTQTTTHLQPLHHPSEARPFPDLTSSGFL

SMILES | Activity (Macrophage [1]) | Activity (Macrophage [2]) | Activity (Macrophage [3]) | Activity (Macrophage [4]) | Activity (Macrophage [5]) | Activity (Macrophage [6]) | Activity (Macrophage [7]) | Activity (Macrophage [8]) | Activity (Macrophage [9]) | Activity (Macrophage [10]) | Activity (Macrophage [11]) | Activity (Macrophage [12]) | Activity (Macrophage [13]) | Activity (Macrophage [14]) | Activity (Macrophage [15]) | Activity (Macrophage [16]) | Activity (Macrophage [17]) | Activity (Macrophage [18]) | Activity (Macrophage [19]) | XC50 [20] | other results
CCOC(=O)CCNc1cc(N2CCc3ccccc3CC2)nc(-c2ccccn2)n1 | 2627 a.u. | 3 a.u. | 820 a.u. | 19 a.u. | 59 a.u. | 153760 a.u. | 304 a.u. | 3068 a.u. | 6284 a.u. | 3032303 a.u. | 360 a.u. | 1157 a.u. | 476 a.u. | 197 a.u. | 8686 a.u. | 9678 a.u. | 1586 a.u. | 17105 a.u. | 5959 a.u. |  | 
O=C(O)CCNc1cc(N2CCc3ccccc3CC2)nc(-c2ccccn2)n1 |  |  |  |  |  |  |  |  |  |  |  |  |  |  |  |  |  |  |  | > 63 µM | XC50 (Histone deacetylase 2): > 300 µM; XC50 (Histone deacetylase 3): > 300 µM; XC50 [21]: > 40 µM; XC50 [22]: > 32 µM; XC50 [23]: > 32 µM; XC50 (Histamine H1 receptor): > 40 µM; XC50 [24]: > 16 µM; XC50 [25]: > 16 µM; XC50 [26]: 50 µM; XC50 [27]: > 16 µM; XC50 [28]: > 100 µM; XC50 (OATP1B1 (SLCO1B1)): > 25 µM
O=C(O)CCNc1cc(N2CCc3ccccc3CC2)nc(-c2cccnc2)n1 |  |  |  |  |  |  |  |  |  |  |  |  |  |  |  |  |  |  |  | > 63 µM | XC50 (Histone deacetylase 2): > 300 µM; XC50 (Histone deacetylase 3): > 300 µM; XC50 [21]: > 40 µM; XC50 [22]: > 32 µM; XC50 [23]: > 32 µM; XC50 (Histamine H1 receptor): > 40 µM; XC50 [24]: > 16 µM; XC50 [25]: > 16 µM; XC50 [26]: 16 µM; XC50 [27]: > 16 µM; XC50 [28]: 0.32 µM; XC50 (OATP1B1 (SLCO1B1)): 20 µM
CCOC(=O)CCNc1cc(N2CCc3ccccc3CC2)nc(-c2cccnc2)n1 | 2746 a.u. | 347 a.u. | 1235 a.u. | 87 a.u. | 151 a.u. | 1501879 a.u. | 5021 a.u. | 17395 a.u. | 4600 a.u. | 10300355 a.u. | 33 a.u. | 2282 a.u. | 2413 a.u. | 45 a.u. | 10108 a.u. | 5331 a.u. | 512 a.u. | 115933 a.u. | 6886 a.u. |  | 
